Experimental data taken from patent US11351178B2, “Selective HDAC6 inhibitors” (ITALFARMACO S.P.A., priority 2017, dated 2022).
Entries after “also recorded” stand apart in the source; their conditions may differ.

What was measured:
[1] = Pharmacokinetics after single intravenous and oral administration to the mouse
Method: Plasma levels and main pharmacokinetic parameters of test compounds were evaluated after single intravenous and oral administration to the mouse.
The formulations were prepared in a mixture of DMSO/PEG400/H2O. Blood was collected at the following sampling times: 5, 10, 15, 30 minutes, 1, 2, 4 and 6 hours after administration. Plasma samples (100 μL) were deproteinized by addition of 1% formic acid in ACN, then vortex mixed and centrifuged. For each sample, an aliquot of the supernatant was collected and diluted with water, filtered with 0.45 μm regenerated cellulose filter and analysed by LC-MS/MS. Plasma levels of the test compounds were calculated on a calibration curve prepared in the range 0.5-200 ng/mL.
Pharmacokinetic parameters were calculated on the mean plasma concentration curve using the software Kinetica™ v.

[2] = test system: EMT6, CT26, 4T1 murine tumors; experiment: In vivo murine tumor models (FIG. 2); parameters: species or system mouse; settings: compounds 50 mg/kg oral gavage once a day 5 days a week, anti PD-1 10 mg/kg ip three times a week
From the text: Four different immune-oncology mouse models of cancer were used to evaluate the in vivo efficacy of compounds 8 and 10 of this invention. In this experiment, we compared the efficacy of an anti PD-1 antibody with that shown by the HDAC6 inhibitors. Anti PD-1 targets the immune checkpoint PD-1/PD-L1 axis and is an established immunotherapy in a growing number of malignancies (Pardoll D. M., Nature Reviews Cancer, 2012, 12: 252-264).
Tumors were induced in immunocompetent mice using the following cell lines: • EMT6 (murine breast cancer) • CT26 (murine colon cancer • 4T1 (triple negative murine breast cancer)
• Therapeutic treatment started when tumor nodules reached approximately 3 mm in diameter. • Compounds 8 and 10 were administered by oral gavage once a day for 5 days a week at 50 mg/kg. • Anti PD-1 antibody was administered three times a week by ip injection at 10 mg/kg.

CT26 tumor = experiment: CT-26 murine model, single agents and combination with anti PD-1 (FIG. 3); format: in vivo, BALB/c mice; settings: for CT-26 tumor growth/progression, single agent: p.o. 50 mg/Kg daily
Method: FIG. 3: HDAC6 inhibitors reduces CT-26 tumor growth in vivo and their activity can be improved by combined treatment with anti PD-1 antibody. Statistics was evaluated at day 30 by Student's t test. *, P<0.05; **, P<0.01; ***, P<0.001. See text for further details. […] Adult BALB/c mice were injected s.c. with 1×10^6 CT26 tumor cells (diluted to 100 ul with phosphate-buffered saline). One week later, mice were given daily compounds 8 and 10 p.o. at 50 mg/Kg and/or injected with anti-PD1 antibody at 10 mg/Kg. At time of sacrifice, spleens were taken to analyze ex vivo, the tumor immune response. Spleen cells were stimulated with a mixture of CT-26 tumor specific peptides recognized in the context of both MHC I and MHC II. Thus, using this ex vivo stimulation, a specific tumor response mediated by CD4 and CD8 T cells can be detected.

[3] = test system: PD-L1 expression in iDC (GMCSF-IL-4 stimulated monocytes); experiment: Inhibition of the expression of PD-L1 in in vitro derived dendritic cells; format: cell-based; settings: human monocytes, GMCSF-IL-4, 5 days, FIG. 1
Method: FIG. 1: The inhibition of PD-L1 expression in iDC (GMCSF-IL-4 stimulated monocytes). Human monocytes were treated with HDAC6 inhibitors and stimulated with GMCSF-IL-4 for 5 days. After incubation, cells were collected and labelled with an anti PD-L1 antibody. Cells were then washed and fluorescence data were acquired using a flow cytometer (BD FACSVerse). Values on the graphs represent the mean of 3 experiment carried out on 3 different donors (n=3). The expression of PD-L1 is represented by the geometric mean of the fluorescence. *=P<0.05 determined by Student's t test.
To obtain in vitro derived DCs, human monocytes purified from PBMC, were treated for 5 days with GMCSF (50 ng/ml) and IL-4 (10 ng/ml) in the presence of two selective HDAC6 inhibitors described in this invention (compounds 10 and 19) and the HDAC inhibitor example 43 of WO 2012/106343. Control cells were treated with the inhibitor's vehicle. This procedure induces the formation of immature dendritic cells (iDCs) that express PD-L1 (Brown J A et al. J Immunol. 2003; 170:1257-66). After 5 days, iDCs were analyzed for the expression of the inhibitory marker […].

[4] = test system: H3 histone acetylation in 697 cell line; experiment: In vitro H3 histone acetylation in 697 cell line; format: cell-based; settings: 16 h, read-out: Acetylation of H3 histone (fold increase of acetylated H3/total H3 towards control); for fold induction at 0.111 µM: conc 111 nM; for fold induction at 0.333 µM: conc 333 nM; for fold induction at 1 µM: conc 1000 nM
Method: The in vitro α-tubulin and H3 histone acetylation determination was evaluated on B 697 […] cell line.
The test molecules were diluted from 20 mM stock solution in DMSO with RPMI 10% FCS+0.01% DMSO medium at 20× concentration compared to the final concentration, added to the cells (15×10^6 cells in a total volume of 30 ml in RPMI medium 10% FCS+0.01% DMSO) to obtain the final concentrations of 1000, 333, 111 and 37 nM and incubated at 37° C., 5% CO2 for 16 hours.
The remaining cells (10×10^6) were treated by acid extraction of histones (Kazuhiro et al., PNAS (2002), 99 (13) 8921-8926). Cells were centrifuged 5 min at 1100 rpm at 4° C. and washed once in 0.9% NaCl. The resulting pellet was lysed with […] (10 mM Tris.HCl, pH 6.5/50 mM sodium bisulphite, 1% Triton X-100/10 mM MgCl2/8.6% saccharose containing the protease inhibitor mixture (Roche)) for 20 min at 4° C. The resulting nucleus pellet was repeatedly washed in buffer until supernatant clarification (centrifuged at 7,500×g, 5 minutes after each wash) and finally washed in nucleus buffer (10 mM Tris.HCl/13 mm EDTA, pH 7, 4) and resuspended in 250 μl of 0.2 M HCl/H2SO4. Histone proteins were extracted in an acidic environment by incubating overnight at 4° C. under gentle shaking. After centrifugation at 14,000 rpm at 4° C. for 10 minutes, 1250 μl of cold acetone was added to the supernatant and incubated overnight at −20° C., resulting in the precipitation of histone proteins. The pellet obtained after centrifugation for 10 minutes at 14000 rpm and 4° C. was washed with cold acetone, evaporated to dryness and resuspended in 50 μl distilled water. The protein content determination of both total and histone extracts was carried out by a colorimetric assay using a BCA Protein Assay Kit (Pierce cat: 23227).
H3 histone acetylation and total H3 amount were quantified by commercial ELISA assays PathScan acetylated histone H3 Sandwich Elisa kit, cat #7232C and PathScan total histone H3 Sandwich Elisa Kit, cat #7253C Cell Signaling) according to supplier reported method and by detecting absorbance at 450 nm wavelength using Multiskan Spectrum. ELISA tests were performed by analysing 0.250 μg and 0.500 μg of histone extract of each sample. The degree of acetylation was calculated by dividing H3 histone absorbance by histone total absorbance.
Test results of tubulin and H3 histone acetylation, expressed as fold increase of ratio of acetylated α-tubulin/total α-tubulin and H3Ac/H3Tot, respectively, of each sample relative to the control sample (untreated) are summarized in Tables 6 and 6′.

O=C(NO)c1ccc(Cn2nnnc2-c2cccs2)cc1 [comp. 8, N-hydroxy-4-((5-(thiophen-2-yl)-1H-tetrazol-1-yl)methyl)benzamide]
AUCtot ([1]; Os, dose 5.2 mg/kg): 94 ng·h/mL | Cmax ([1]; Os, dose 5.2 mg/kg): 238 ng/mL | Tmax ([1]; Os, dose 5.2 mg/kg): 4.8 min | T1/2 ([1]; i.v., dose […]): 60 min | Vd ([1]; i.v., dose […]): 15.3 L/kg | bioavailability ([1]; plasma, po, 5.2 mg/kg): 18.5% | tumor growth in vivo [2]: comparable efficacy in reducing tumor growth; also recorded: reduce tumor growth in vivo | CT-26 tumor growth/progression, single agent (CT26 tumor): significantly reduce CT-26 tumor progression

Cn1c(Sc2ccc(C(=O)NO)cc2)nnc1-c1cccs1 [comp. 10, N-hydroxy-4-((4-methyl-5-(thiophen-2-yl)-4H-1,2,4-triazol-3-yl)thio)benzamide]
AUCtot ([1]; Os, dose 5.2 mg/kg): 123 ng·h/mL | Cmax ([1]; Os, dose 5.2 mg/kg): 144 ng/mL | Tmax ([1]; Os, dose 5.2 mg/kg): 15 min | T1/2 ([1]; i.v., dose […]): 78 min | Vd ([1]; i.v., dose […]): 20.5 L/kg | bioavailability ([1]; in vivo, po, 5.2 mg/kg): 25.8% | PD-L1 expression in iDC [3]: reduced the PD-L1 expression in a statistically significant way | tumor growth in vivo [2]: comparable efficacy in reducing tumor growth; also recorded: reduce tumor growth in vivo | CT-26 tumor growth inhibition, combination with anti PD-1 antibody (CT26 tumor; compound p.o. 50 mg/Kg plus anti-PD1 antibody 10 mg/Kg): further improves tumor growth inhibition | CT-26 tumor growth/progression, single agent (CT26 tumor): significantly reduce CT-26 tumor progression

O=C(NO)c1cc(F)c(Cn2nnnc2-c2cccs2)c(F)c1 [comp. 15, 3,5-difluoro-N-hydroxy-4-((5-(thiophen-2-yl)-1H-tetrazol-1-yl)methyl)benzamide]
fold induction at 0.111 µM [4]: 1 | fold induction at 0.333 µM [4]: 1 | fold induction at 1 µM [4]: 1

Cn1c(Sc2c(F)cc(C(=O)NO)cc2F)nnc1-c1cccs1 [comp. 17, 3,5-difluoro-N-hydroxy-4-((4-methyl-5-(thiophen-2-yl)-4H-1,2,4-triazol-3-yl)thio)benzamide]
AUC ([1]; plasma, iv, 1.3 mg/kg): 114 ng·h/mL | C0 ([1]; plasma, iv, 1.3 mg/kg): 727 ng/mL | Vd ([1]; plasma, iv, 1.3 mg/kg): 16.8 L/kg | clearance ([1]; plasma, iv, 1.3 mg/kg): 190 mL/min/kg | half-life ([1]; plasma, iv, 1.3 mg/kg): 60 min | Tmax ([1]; plasma, po, […]): 4.8 min | bioavailability ([1]; plasma, po, […]): 18.4%

O=C(NO)c1cc(F)c(Cn2nnc(-c3ccco3)n2)c(F)c1 [comp. 19, 3,5-difluoro-4-((5-(furan-2-yl)-2H-tetrazol-2-yl)methyl)-N-hydroxybenzamide]
fold induction at 0.111 µM [4]: 1 | fold induction at 0.333 µM [4]: 2 | fold induction at 1 µM [4]: 2 | PD-L1 expression in iDC [3]: reduced the PD-L1 expression in a statistically significant way

O=C(NO)c1cc(F)c(Cn2nnnc2-c2ncccn2)c(F)c1 [comp. 125, 3,5-difluoro-4-[(5-pyrimidin-2-yltetrazol-1-yl)methyl]benzenecarbohydroxamic acid]
fold induction at 0.111 µM [4]: 1 | fold induction at 0.333 µM [4]: 1 | fold induction at 1 µM [4]: 1

Cn1c(Sc2c(F)cc(C(=O)NO)cc2F)nnc1-c1cccc(CN2CCCCCC2)c1 [comp. 167, 4-[[5-[3-(azepan-1-ylmethyl)phenyl]-4-methyl-1,2,4-triazol-3-yl]sulfanyl]-3,5-difluoro-benzenecarbohydroxamic acid]
fold induction at 0.111 µM [4]: 1 | fold induction at 0.333 µM [4]: 1 | fold induction at 1 µM [4]: 2

Cn1c(Sc2c(F)cc(C(=O)NO)cc2F)nnc1-c1ccc(CN2CCCCCC2)cc1 [comp. 168, 4-[[5-[4-(azepan-1-ylmethyl)phenyl]-4-methyl-1,2,4-triazol-3-yl]sulfanyl]-3,5-difluoro-benzenecarbohydroxamic acid]
fold induction at 0.111 µM [4]: 1 | fold induction at 0.333 µM [4]: 1 | fold induction at 1 µM [4]: 2

Nc1ccc(-c2nnn(Cc3c(F)cc(C(=O)NO)cc3F)n2)cc1 [comp. 171, 4-[[5-(4-aminophenyl)tetrazol-2-yl]methyl]-3,5-difluoro-benzenecarbohydroxamic acid]
fold induction at 1 µM [4]: 3

Cn1c(Sc2c(F)cc(C(=O)NO)cc2F)nnc1-c1cccnn1 [comp. 179, 3,5-difluoro-4-[(4-methyl-5-pyridazin-3-yl-1,2,4-triazol-3-yl)sulfanyl]benzenecarbohydroxamic acid]
fold induction at 1 µM [4]: 1

Cn1c(Sc2c(F)cc(C(=O)NO)cc2F)nnc1-c1ncccc1F [comp. 180, 3,5-difluoro-4-[[5-(3-fluoro-2-pyridyl)-4-methyl-1,2,4-triazol-3-yl]sulfanyl]benzenecarbohydroxamic acid]
fold induction at 1 µM [4]: 1

O=C(NO)c1cc(F)c(Cc2nnc(-c3ccncc3)s2)c(F)c1 [compound 195, 3,5-difluoro-4-[[5-(4-pyridyl)-1,3,4-thiadiazol-2-yl]methyl]benzenecarbohydroxamic acid]
fold induction at 0.111 µM [4]: 1 | fold induction at 0.333 µM [4]: 1 | fold induction at 1 µM [4]: 1
